Data as given in patent US20220225627A1, “A NUTRITIONAL COMPOSITION FOR USE TO ENHANCE EXECUTIVE FUNCTION” (SOCIETE DES PRODUITS NESTLE S.A., priority 2019, published 2022).

Tests used:
Type in all cases: in vivo
[1] = test system: genes related to myelination; myelination and myelin sheath pathway; test: expression of myelination-related genes and KEGG pathways in brain samples; details: mice receiving milk without 6′SL
Source text: Adult wild-type (WT) B6.129 and heterozygous (HZ) B6.129-St6gal1^tm2Jxm breeding pairs (four males and four females and three males and four females, respectively) were purchased from a commercial breeder (The Jackson Laboratory). Upon arrival, same-sex mice were housed in same-sex groups of 2-3 in type-1 polycarbonate cages (33.0×13.0×14.0 cm) equipped with sawdust bedding, an enrichment bag (Mucedola, Settimo Milanese, Italy), metal top and ad libitum water and food pellets (Mucedola, Settimo Milanese, Italy). Mice were maintained on a reversed 12-h-light-dark cycle (light on at 7:00 PM) in an air-conditioned room (temperature 21±1C and relative humidity 60±10%). Two weeks after arrival, breeding triads (one male, two females) were formed. After two weeks of mating, male mice were removed and females were housed individually in standard type-1 cages. Females were checked daily for delivery and the day in which they gave birth was designated as postnatal day (PND) 0. Apart from cage cleaning once a week, dams and their offspring were kept undisturbed until weaning (on PND 25). At weaning, male and female mice were separated and located in same-sex same-litter cages; additionally, male mice were marked through ear clipping and the ear tissue removed through this procedure was used for genotyping. Homozygous knock-out (KO) and WT mice were then used for the experiments.
Fourteen wild type (WT) and 14 St6Gal1 Homozygous (hereafter KO) female mice have been mated with seven WT and seven KO male mice respectively. Out of this batch, 10 WT and 10 KO dams gave birth to a viable offspring. […]
(§1) Total RNA is extracted using the Agencourt RNAdvance Tissue Kit (Beckman Coulter): Lysis was done in 450 μL. […] Elution volume 50 μL Quantification is performed using Quant It Ribogreen assay (Life Technologies) QC assessment is performed using Standard sensitivity RNA kit on Fragment Analyzer 96 (Agilent). […]
(§2) Library generation starts with oligodT priming containing the Illumina-specific Read 2 linker sequence. […] The random primer contains the Illumina-specific Read 1linker sequence. […]

[2] = test system: myelin-associated glycoprotein (MAG); test: myelin gene expression in brain samples (QuantSeq 3′ mRNA-Seq), MAG; details: mice receiving milk without 6′SL, fold change relative to control mice receiving milk with 6′SL; FIG. 4
Source text: (§3) Adult wild-type (WT) B6.129 and heterozygous (HZ) B6.129-St6gal1^tm2Jxm breeding pairs (four males and four females and three males and four females, respectively) were purchased from a commercial breeder (The Jackson Laboratory). Upon arrival, same-sex mice were housed in same-sex groups of 2-3 in type-1 polycarbonate cages (33.0×13.0×14.0 cm) equipped with sawdust bedding, an enrichment bag (Mucedola, Settimo Milanese, Italy), metal top and ad libitum water and food pellets (Mucedola, Settimo Milanese, Italy). Mice were maintained on a reversed 12-h-light-dark cycle (light on at 7:00 PM) in an air-conditioned room (temperature 21±1C and relative humidity 60±10%). Two weeks after arrival, breeding triads (one male, two females) were formed. After two weeks of mating, male mice were removed and females were housed individually in standard type-1 cages. […]
as §1, §2

[3] = test system: myelin basic protein (MBP); test: myelin gene expression in brain samples (QuantSeq 3′ mRNA-Seq), MBP; details: mice receiving milk without 6′SL, fold change relative to control mice receiving milk with 6′SL; FIG. 4
Source text: as §3, §1, §2

In the case of `CC(=O)N[C@H]1[C@H]([C@H](O)[C@H](O)CO)O[C@@](OC[C@H]2O[C@@H](O[C@H]3[C@H](O)[C@@H](O)C(O)O[C@@H]3CO)[C@H](O)[C@@H](O)[C@H]2O)(C(=O)O)C[C@@H]1O` (stereo partly drawn) [6′SL, (6R)-5-Acetamido-3,5-dideoxy-6-[(1R,2R)-1,2,3-trihydroxypropyl]-β-L-threo-hex-2-ulopyranonosyl-(2->6)-β-D-galactopyranosyl-(1->4)-D-glucopyranose], the “expression of multiple genes related to myelination” value ([1]; adulthood, and hippocampus at both ages) is reported as “neither observed”, the “KEGG myelination and myelin sheath pathway” value ([1]; only in prefrontal cortex during early life) is reported as “down-regulated” and the “expression of multiple genes related to myelination” value ([1]; prefrontal cortex during early life) is reported as “reduced”. The “reduction of the expression of myelin-associated glycoprotein (MAG)” value [2] was 50% and the “reduction of the expression of myelin basic protein (MBP)” value [3] was 50%.
